Measured values reported in PMC9416257, “Design, Synthesis and Preliminary Evaluation of the Cytotoxicity and Antibacterial Activity of Novel Triphenylphosphonium Derivatives of Betulin” (Molecules, 2022).
Read-outs that look alike come from different tables or passages of the source.

Columns and labels:
[1] = tested on: HCT 116 (colorectal carcinoma cell line); test: Cytotoxicity, CCK-8 cell viability assay; assay type: cell-based; details: Homo sapiens, read-out: Activity IC50, HCT 116
Experimental: (§1) The obtained new molecular hybrids of BN were screened in order to initially investigate their cytotoxicity as well as examine the relationships between the structure and biological effect. The common element of all of the tested compounds was the presence of a lipophilic moiety (CH2)nTPP^⊕ (n = 3, 4, 5). The research was conducted on two groups of compounds: 28-TPP^⊕ BN and 3,28-bisTPP^⊕ BN. Their cytotoxicity was investigated on two cancer cell lines: HCT 116 (colorectal carcinoma cell line) and MCF-7 (human breast adenocarcinoma cell line). The proliferation of tumor cells treated with the tested compounds (7 and 9) at 12.5–3.125 µM concentrations were determined after 24 h of incubation. Additionally, all compounds were tested against the NHDF cell line (Normal Human Dermal Fibroblast cells) to assess their safety. Half-maximal inhibitory concentrations (IC50) of triphenylphosphonium analogs of BN were determined using a CCK-8 assay and are summarized in Table 2.
(§2) The human colorectal carcinoma cell line (HCT 116) and the human breast adenocarcinoma cell line (MCF-7) cells were purchased from the American Type Culture Collection (ATCC, Manassas, VA, USA). The Normal Human Dermal Fibroblast (NHDF) cells were purchased from Lonza (Dermal Fibroblasts, Lonza, Poland). All cells were cultured under standard conditions at 37 °C in a humidified atmosphere at 5% CO2 in DMEM/F12 medium (PAA) supplemented with 10% of heat-inactivated fetal bovine serum (FBS, EURx, Gdansk, Poland) and antibiotics (penicillin/streptomycin).
(§3) Cells were seeded at 7500 (HCT 116) or 10,000 (MCF-7, NHDF) cells/well in 96-well plates. After 24 h, the culture medium was removed and 100 µL of fresh medium containing the test compounds at 0–12.5 µM concentrations was added to the culture wells. The test compounds were dissolved in DMSO to obtain a stock solution with a concentration of 5 mM (betulin) or 10 mM (other test compounds). The stock solution was diluted with the fresh culture medium to the desired concentration. Controls were cells grown in medium without the addition of test compounds. After 24 h of incubation with the test compounds, 10 µL of CCK-8 reagent (Bimake, Houston, TX, USA) was added to each well. After 2 h, the absorbance of the samples was measured at a wavelength of 450 nm using a microplate reader (Epoch, BioTek Instruments, Winooski, VT, USA). The determinations were conducted in at least three biological replications (each biological replication contained 3 technical replications). The cell viability rate was calculated using CalcuSyn software (version 2.0, Biosoft, Cambridge, UK).

[2] = tested on: NHDF (Normal Human Dermal Fibroblast cells); test: Cytotoxicity, CCK-8 cell viability assay (safety on normal cells); assay type: cell-based; details: read-out: Activity IC50, NHDF
Experimental: as §1, §2, §3

[3] = tested on: Escherichia coli ATCC 25922; test: Antibacterial assay, optical density of culture in TSB; assay type: cell-based; details: 37 °C, 18 h; note: key: 0: no difference between samples after 18 h of bacteria culture (bacteria grow was inhibited); neg: negative results (analog BN did not inhibit bacteria growing)
Experimental: (§4) Investigations were carried out using different concentrations of solutions from 25 to 250 µM. A 25 µM concentration of the tested derivatives was not enough to inhibit the growth of […]. When the concentration of analogs 7d–7f and 9a–9c increased to 200 µM, the growth of S. aureus ATCC 25923 and S. epidermidis ATCC 12228 was inhibited. Furthermore, the optical density of all compounds remained unchanged after 18 h of bacteria culture. In the case of analogs 7a–7c, the optical density values were between 0.9 and 2.2 when they were cultured with S. aureus ATCC 25923. The bacterial growth was slower compared to the control sample (TSB-culture medium). […] In the case of analog 7c, the optical density increased up to […] after 18 h of the sample culture with both kinds of Gram-positive bacteria. In contrast, the reference sample’s (TSB) optical density increased to 7.5 for S. aureus ATCC 25923, and 4.9 for S. epidermidis ATCC 12228 after 18 h of bacteria culture. […] All of the analog values of the measured optical density were similar to that of the reference sample (5.0–5.1, Table 3).
(§5) Antibacterial analysis was performed using the S. aureus ATCC 25923, S. epidermidis ATCC 12228, and Escherichia coli ATCC 25922 bacteria strains. The test compounds were dissolved in DMSO to obtain a stock solution with a concentration of 5 mM (betulin) or 10 mM (other test compounds). The stock solution was diluted with water to the desired concentration (25–250 µM). Then, 1 mL of the investigated solutions was mixed with 1 mL of culture medium (TSB, Biomaxima, Lublin, Poland) in a sterile glass tube. The initial concentration of bacteria was around 5 × 10^6 CFU/mL. The concentration of bacteria was measured using an optical densitometer before and after 18 h of bacteria culture in glass tubes at 37 °C (incubator POL-EKO, Wodzislaw Slaski, Poland). The investigations were repeated for three independent samples. The control sample was the culture medium without any supplementation.

[4] = tested on: MCF-7 (human breast adenocarcinoma cell line); test: Cytotoxicity, CCK-8 cell viability assay; assay type: cell-based; details: read-out: Activity IC50, MCF-7
Experimental: as §1, §2
as §3, with “After 24 h, the culture medium was removed and 100 µL of fresh medium containing the test compounds at 0–12.5 µM concentrations was added to the culture wells.” left out

S. aureus ATCC 25923 = test: Antibacterial assay, optical density of culture in TSB; assay type: cell-based, Staphylococcus aureus; details: 18 h; for Difference between optical density before and after culture, S. aureus ATCC 25923: 37 °C; for Inhibition of growth of S. aureus ATCC 25923 (in words): 250 µM
Experimental: as §4, §5

[5] = tested on: S. epidermidis ATCC 12228; test: as above; assay type: cell-based, Staphylococcus epidermidis; details: 18 h; for Difference between optical density before and after culture, S. epidermidis ATCC 12228: 37 °C; for Inhibition of growth of S. epidermidis ATCC 12228 (in words): 250 µM
Experimental: as §4, §5

[6] = HCT-116, CCK-8 assay, incubation time 24 h, mean ± SD (n = 3)
[7] = CCK-8 assay, incubation time 24 h, mean ± SD (n = 3)
[8] = MCF7, CCK-8 assay, incubation time 24 h, mean ± SD (n = 3)

Structure (SMILES) | IC50 ([1]; HCT-116, 24 h) | IC50 ([2]; 24 h) | Difference between optical density before and after culture, Escherichia coli ATCC 25922 ([3]; 200 μM) | Difference between optical density before and after culture, Escherichia coli ATCC 25922 ([3]; 250 μM) | IC50 ([4]; MCF7, 24 h) | Difference between optical density before and after culture, S. aureus ATCC 25923 (S. aureus ATCC 25923; 200 μM) | Difference between optical density before and after culture, S. aureus ATCC 25923 (S. aureus ATCC 25923; 250 μM) | Difference between optical density before and after culture, S. epidermidis ATCC 12228 ([5]; 200 μM) | Difference between optical density before and after culture, S. epidermidis ATCC 12228 ([5]; 250 μM) | IC50 [1, 6] | IC50 [2, 7] | IC50 [4, 8] | Inhibition of growth of S. aureus ATCC 25923 (in words) (S. aureus ATCC 25923) | Inhibition of growth of S. epidermidis ATCC 12228 (in words) [5]
C=C(C)[C@@H]1CC[C@]2(COC(=O)CCC(=O)OCCCCC[P+](c3ccccc3)(c3ccccc3)c3ccccc3)CC[C@]3(C)C(CCC4[C@@]5(C)CC[C@H](OC(=O)CCC(=O)OCCCCC[P+](c6ccccc6)(c6ccccc6)c6ccccc6)C(C)(C)C5CC[C@]43C)C12 (some centres unmarked) [9c, 3,28-O,O′-Bis(3’-(5"-triphenylphosphoniopentyloxycarbonyl)propanoyl)betulin bromide] | 19 ± 0.51 µM | 10.6 ± 0.34 µM | neg | neg | 53.3 ± 5.41 µM | 0 | 0 | 0 | 0 | – | – | – | – | –
C=C(C)[C@@H]1CC[C@]2(COC(=O)CCC(=O)OCCC[P+](c3ccccc3)(c3ccccc3)c3ccccc3)CC[C@]3(C)C(CCC4[C@@]5(C)CC[C@H](OC(C)=O)C(C)(C)C5CC[C@]43C)C12 (some centres unmarked) [7a, 3-O-Acetyl-28-O’-(3’-(3"-triphenylphosphoniopropyloxycarbonyl)propanoyl)betulin bromide] | – | – | neg | neg | – | 0.9 McFarland’s scale (CFU/mL) | 0 | neg | 0 | 5.56 ± 0.28 µM | 9.68 ± 0.27 µM | 13.7 ± 0.54 µM | greatly inhibited the growth | greatly inhibited the growth
C=C(C)[C@@H]1CC[C@]2(COC(=O)CCC(=O)OCCCCC[P+](c3ccccc3)(c3ccccc3)c3ccccc3)CC[C@]3(C)C(CCC4[C@@]5(C)CC[C@H](OC(C)=O)C(C)(C)C5CC[C@]43C)C12 (some centres unmarked) [7c, 3-O-Acetyl-28-O’-(3’-(5"-triphenylphosphoniopentyloxycarbonyl)propanoyl)betulin bromide] | – | – | neg | neg | – | 1.0 McFarland’s scale (CFU/mL) | – | neg | – | 6.48 ± 0.04 µM | 11.3 ± 0.53 µM | 15.5 ± 0.92 µM | – | –
C=C(C)[C@@H]1CC[C@]2(CO)CC[C@]3(C)[C@H](CC[C@@H]4[C@@]5(C)CC[C@H](O)C(C)(C)[C@@H]5CC[C@]43C)[C@@H]12 [BN, 3-lup-20(29)-ene-3,28-diol, reference compound] | – | – | neg | neg | – | 5.1 McFarland’s scale (CFU/mL) | 5.6 McFarland’s scale (CFU/mL) | neg | 4.7 McFarland’s scale (CFU/mL) | > 12.5 µM | > 12.5 µM | > 12.5 µM | – | –
C=C(C)[C@@H]1CC[C@]2(COC(=O)CC(C)(C)C(=O)OCCCCC[P+](c3ccccc3)(c3ccccc3)c3ccccc3)CC[C@]3(C)C(CCC4[C@@]5(C)CC[C@H](OC(C)=O)C(C)(C)C5CC[C@]43C)C12 (some centres unmarked) [7f, 3-O-Acetyl-28-O’-(3’,3’-dimethyl-3’-(5"-triphenylphosphoniopentyloxycarbonyl)propanoyl)betulin bromide] | – | – | neg | neg | – | 0 | 0 | 0 | 0 | 12.7 ± 0.89 µM | 10 ± 0.48 µM | 50.5 ± 3.92 µM | – | –
C=C(C)[C@@H]1CC[C@]2(COC(=O)CCC(=O)OCCCC[P+](c3ccccc3)(c3ccccc3)c3ccccc3)CC[C@]3(C)C(CCC4[C@@]5(C)CC[C@H](OC(C)=O)C(C)(C)C5CC[C@]43C)C12 (some centres unmarked) [7b, 3-O-Acetyl-28-O’-(3’-(4"-triphenylphosphoniobutyloxycarbonyl)propanoyl)betulin bromide] | – | – | neg | neg | – | 2.2 McFarland’s scale (CFU/mL) | 0 | neg | 0 | 5.77 ± 0.27 µM | 10.7 ± 0.25 µM | 14.3 ± 0.38 µM | greatly inhibited the growth | greatly inhibited the growth
